Test results as given in BindingDB's records for doi:10.1021/jm1003705 (The University of Queensland, 2010).

Target: T1, C3a anaphylatoxin chemotactic receptor (Homo sapiens, UniProt Q16581)
T1 sequence (Q16581 whole entry): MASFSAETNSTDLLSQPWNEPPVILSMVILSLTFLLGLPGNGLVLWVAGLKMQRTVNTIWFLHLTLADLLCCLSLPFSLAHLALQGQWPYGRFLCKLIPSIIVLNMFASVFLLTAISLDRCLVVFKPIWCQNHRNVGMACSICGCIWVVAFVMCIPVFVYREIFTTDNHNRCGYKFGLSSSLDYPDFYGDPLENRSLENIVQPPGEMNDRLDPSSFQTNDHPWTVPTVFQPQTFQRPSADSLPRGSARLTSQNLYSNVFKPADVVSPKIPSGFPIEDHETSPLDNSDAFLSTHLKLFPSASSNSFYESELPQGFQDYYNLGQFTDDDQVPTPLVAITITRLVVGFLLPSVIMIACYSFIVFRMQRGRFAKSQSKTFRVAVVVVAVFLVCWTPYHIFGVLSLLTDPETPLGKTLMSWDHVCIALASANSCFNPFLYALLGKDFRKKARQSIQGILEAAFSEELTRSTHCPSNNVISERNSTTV
Experiment: Displacement of [125I-C3a] from C3a receptor in human PBMC by scintillation counting

Q: For `NC(N)=NCCC[C@H](NC(=O)COCC(c1ccccc1)c1ccccc1)C(=O)O` [(S)-2-(2-(2,2-diphenylethoxy)acetamido)-5-guanidinopentanoic acid], which IC50 is on record?
A: 0.125 µM
